# Test results published in patent US20240359037A1, “Ultrasound Method” (ACT THERAPEUTICS LTD, priority 2021, published 2024).
# Test system: subcutaneous prostate cancer model (PC3)
# Assay: Tumour specific uptake of Evans Blue vs. Enhancement MI
# Assay type: in vivo, mice
# Conditions: Enhancement 0.5 MHz MI 0.2 compared to MI=0 (no ultrasound); 30 min after treatment
# Experimental: To investigate the effect of MI variance of the US Enhancement field, tumour specific uptake of Evans Blue (EB, fluorescent dye) has been investigated in a subcutaneous prostate cancer model (PC3) in mice. Five groups with Enhancement insonation MIs of 0, 0.1, 0.2, 0.3 and 0.4 were investigated (N=3 animals per group). […] 30 min after treatment, the tumours were excised and the amount of EB was measured by spectrophotometry at 620 nm.
smiles,measurement,value
Cc1cc(-c2ccc(/N=N/c3ccc4c(S(=O)(=O)O)cc(S(=O)(=O)O)c(N)c4c3O)c(C)c2)ccc1/N=N/c1ccc2c(S(=O)(=O)O)cc(S(=O)(=O)O)c(N)c2c1O [Evans Blue],increase in tumour specific uptake,~60%
